Where “and” joins values, the source holds several entries; their conditions need not be identical. Identical values can stand only once.
Experiments:
Neutrophil elastase = target: T1, Neutrophil elastase (Homo sapiens, UniProt P08246); test: In vitro inhibitory activity against human leukocyte elastase
T1 sequence (P08246 whole entry): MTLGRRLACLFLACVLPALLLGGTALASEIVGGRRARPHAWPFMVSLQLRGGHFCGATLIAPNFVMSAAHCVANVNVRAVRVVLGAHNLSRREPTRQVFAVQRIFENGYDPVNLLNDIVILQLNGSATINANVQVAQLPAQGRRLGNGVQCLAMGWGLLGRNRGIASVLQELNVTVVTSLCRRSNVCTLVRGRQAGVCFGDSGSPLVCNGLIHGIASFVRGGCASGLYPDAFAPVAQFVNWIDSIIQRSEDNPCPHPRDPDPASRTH

Cricetinae gen. sp. = test: Effective dose required to inhibit elastase induced pulmonary hemorrhage (EPH) lung model in hamsters; format: functional, Cricetulus griseus

| Structure (SMILES) | IC50 (Neutrophil elastase) | ED50 (Cricetinae gen. sp.) |
| --- | --- | --- |
| CC(C)C(NC(=O)CN(C(=O)[C@@H](NC(=O)c1ccc(C(=O)NS(=O)(=O)c2ccc(Cl)cc2)cc1)C(C)C)C1Cc2ccccc2C1)C(=O)C(F)(F)F (stereo not given in full) | – | 4.8 µM |
| CC(C)C(NC(=O)CN1C(=O)[C@@H](NC(=O)c2ccc(C(=O)NS(=O)(=O)c3ccc(Cl)cc3)cc2)C[S+]([O-])c2ccccc21)C(=O)C(F)(F)F (stereo not given in full) | 6.8 µM and 6.2 µM | – |
| CC(C)C(NC(=O)CN1CC[C@H](NC(=O)c2ccc(C(=O)NS(=O)(=O)c3ccc(Cl)cc3)cc2)C1=O)C(=O)C(F)(F)F (stereo not given in full) | > 5 µM | – |

Continued, in another order:

| IC50 (Neutrophil elastase) | Structure (SMILES) | ED50 (Cricetinae gen. sp.) |
| --- | --- | --- |
| > 5 µM | CC(C)C(NC(=O)CN1CCCC[C@H](NC(=O)c2ccc(C(=O)NS(=O)(=O)c3ccc(Cl)cc3)cc2)C1=O)C(=O)C(F)(F)F (stereo not given in full) | – |
| > 5 µM | CC(C)C(NC(=O)CN1CCC[C@H](NC(=O)c2ccc(C(=O)NS(=O)(=O)c3ccc(Cl)cc3)cc2)C1=O)C(=O)C(F)(F)F (stereo not given in full) | – |
